One series relates to embryo development. The conditions noted are these: 0.1 mM; cited from earlier work.
Another series concerns sperm. Briefly: CASA sperm motility assessment. The conditions noted are these: for maintaining percentage of motile and progressive sperm and VAP: 24 and 48 hour. Type of series: cell-based, human. Here is the method:
FIG. 1 illustrates the evaluation of the cytoprotective and antioxidant compound ergothionine for ability to preserve sperm motility and progression, wherein sperm were separated from seminal fluid by density gradient centrifugation, washed in sperm wash media, and incubated in multipurpose handling medium for 48 hours in the presence of antioxidant, wherein path velocity (A) and sperm motility (B) were quantified by CASA, wherein for statistical analysis the log ratio to control was used as the dependent variable in ONEWAY ANOVA with posthoc testing by Dunnet's test (comparisons against a single ‘control’ value only), wherein N>12 per group;
FIG. 4 illustrates ergothionine effectively maintains sperm motility and progression, wherein sperm were separated from seminal fluid by density gradient centrifugation, washed in sperm wash media and incubated in multipurpose handling medium in the presence of ergothionine at 1 mM for 24 hours (A-C) or 48 hours (D-F) or in the presence of ergothionine at 0.1 mM for 24 hours (G-I) or 48 hours (J-L), wherein sperm motility was analysed using CASA, wherein statistical analysis was performed using the Wilcoxon signed-rank, wherein N=26 per group for ergothionine at 1 mM and N=10 per group for 0.1 mM ergothionine;
FIG. 8 illustrates a head-to-head comparison of the effect of a commercially available composition and the composition on sperm motility, wherein sperm were separated from seminal fluid by density gradient centrifugation, washed in sperm wash media and incubated in multipurpose handling medium in the presence of the commercially available composition (A,B) and the composition (C,D) for a period of 30 minutes, wherein sperm motility was analysed using CASA, wherein statistical analysis was performed using the Wilcoxon signed-rank test, wherein N=6 per group; and
Sperm motility assessments were carried out by Computer Assisted Sperm Analysis (CASA) using the Hamilton Thorne software and a Zeiss microscope, following WHO and manufacturers' guidelines. Briefly, semen samples were resuspended using Pasteur pipettes and diluted 1 in 3 in sperm wash media (Irvine Scientific, 9983). […] Motility assessment was evaluated by capturing at least 1000 sperm cell tracks per slide for unprocessed samples and 300 for processed samples. Total cell count (×10e6/ml), percentage immotile (IM), non-progressively motile (NP) and progressively motile (PR) sperm and average path velocity (VAP) for M and PM sperm was recorded for each sample as defined by World Health Organisation (WHO) laboratory manual for the examination and processing of human semen (fifth edition, 2010). […]

The test system of another series is 8-OH-G on sperm DNA. In words: Flow cytometric assay of oxidative DNA damage (8-OHG) on sperm DNA. Type of series: cell-based, human. Here is the method: FIG. 3 illustrates evaluating the effect of ergothionine on sperm oxidative DNA damage, wherein sperm were separated from seminal fluid by density gradient centrifugation, washed in sperm wash media, and incubated in multipurpose handling medium for 48 hours in the presence of the cytoprotective and antioxidant compound ergothionine, wherein sperm were fixed in 4% PFA and stained with FITC labelled 8-OHG antibody (2 μg/ml) for 60 mins, washed and analysed by flow cytometry, wherein data were analyzed using FlowJo software and the mean fluorescent intensity (MFI) plotted, wherein statistical analysis was performed using the Wilcoxon signed-rank test, wherein N=6 per group;
A total of 1×10e6 washed semen samples were fixed by re-suspending the washed sperm cell pellet in 500 μl of 4% paraformaldehyde (Chem Cruz, 281692), pH 7.2 and incubating for 20-30 minutes at RT. Fixed spermatozoa were centrifuged at 2,500×g for 1.5 minutes and washed twice in 500 μl 1% NGS-PBS buffer.
Measurement of oxidative DNA damage was determined using anti-DNA/RNA [15A3] […]
ROS and DNA damage are the most significant contributors to male infertility. […] In measuring this parameter, a flow cytometric assay was developed that could quantify the amount of 8-hydroxyguanine (8-OH-G) in the DNA of individual sperm by the use of a specific fluorescently-labelled monoclonal antibody (see FIG. 2).
(A flow cytometer gives signals particle by particle.)

In a further series the test system is sheep oocytes. The settings on record: cited from earlier work.
For series [1] the following is noted: cited from earlier work.
In series [2] the test system is rats. The settings on record: fed 0.9% of diet for 13 weeks; cited from earlier work.
The test system of series [3] is mouse oocytes with mouse sperm. Briefly: In vitro fertilisation and embryo development to blastocyst. It counts as cell-based. The settings on record: Example 6, control PBS. Here is the method: To evaluate this, in vitro fertilisation studies were performed in the presence of the composition at a concentration of 10% and subsequent embryo development examined to blastocyst stage (see FIG. 7).

Series [4] relates to bovine embryo development. The conditions noted are these: cited from earlier work.
In series [5] the test system is rats. The settings on record: 2 g/kg; cited from earlier work.

Bounds are passed on as bounds.

Consider `C[N+](C)(C)[C@@H](Cc1c[nH]c(=S)[nH]1)C(=O)[O-]` [ergothionine], for which the “safety for embryo development” value with embryo development is given as “safe for embryo development”. In addition, in the series on sperm (48 hours in multipurpose handling medium, FIG. 1), the “effects on sperm motility and average path velocity (VAP)” value is on record as “sperm protective properties”. In the series with sperm (ergothionine 0.1 mM, p values 0.04 for all parameters), the “maintaining percentage of motile and progressive sperm and VAP” value was “effective at maintaining the percentage of motile and progressive sperm in addition to the speed of the movement (VAP)”. Moreover, the “maintaining percentage of motile and progressive sperm and VAP” value in the series on sperm (ergothionine 1 mM, p values 0.002 for all parameters) is “effective at maintaining the percentage of motile and progressive sperm in addition to the speed of the movement (VAP)”. The “toxicity / effect on sperm motility and progression” value in the series with sperm (ergothionine 1 mM, 48 hour) was “effective and non-toxic, with no negative effect on sperm motility and progression”. For the same molecule, the “protection against 8-OH-G formation on sperm DNA” value with 8-OH-G on sperm DNA (ergothionine 0.1 mM, 48 hour, FIG. 3a) is given as “ability to protect against 8-OH-G formation on sperm DNA”. In addition, the “cytoprotective effect against 8-OH-G formation (dose dependence)” value in the series with 8-OH-G on sperm DNA (ergothionine 1 mM vs 0.1 mM, 48 hours, FIG. 3b) was “even greater cytoprotective effect”. In addition, the “concentrations beneficial for in vitro maturation of sheep oocytes” value in the series on sheep oocytes was “up to 10 mM”. Besides, in series [1], the water solubility result is given as “water soluble”. Besides, in the series with rats [2], the “impact on fertility in rats” value is listed as “no negative impact on fertility”. The “effectiveness of exposed sperm in fertilisation versus PBS” value in series [3] is on record as “more effective that those exposed to PBS”. For the same molecule, in series [4], the “concentrations beneficial for bovine embryo development” value is given as “up to 0.1 mM” and the “concentrations that negatively affect bovine embryo development” value was above 500 µM. Besides, the “adverse effects in rats” value in the series with rats [5] is “no adverse effects observed”.

The values are drawn from patent publication US20240050414A1, “A COMPOSITION FOR USE IN THE TREATMENT OF INFERTILITY” (priority 2020, published 2024).
